Results published in patent US11965006B2, “Antimicrobial and anti-cancer therapy” (UNIVERSITY OF PITTSBURGH—OF THE COMMONWEALTH SYSTEM OF …, priority 2016, dated 2024).
Ends that are not written are not given here.

Assays:
[1] = In vivo toxicity / maximum tolerated dose; set-up: species or system Mice (strain: Swiss Webster)
Experimental: The modified AMPs show a lower toxicity and higher maximum tolerated dosage (MTD) than WLBU2 (SEQ ID No. 26). The MTD for WLBU2 (SEQ ID No. 26) is 15 mg/kg, for Colistin is 10 mg/kg, and SEQ ID No. 15 is 30 mg/kg (FIG. 14A).
Mice (strain: Swiss Webster) were injected with SEQ ID No. 15 peptides intravenously (i.v.) or intraperitoneally (i.p.) at the concentrations indicated. […] Thus, the estimated maximum tolerated dose (MTD) is around 40-50 mpk (i.v.). On a similar setting of testing other AMPS, the MTD for WLBU2 is 15 mpk (i.v.) and 10 mpk (i.v.) for colistin.

[2] = tested on: methicillin-resistant Staphylococcus aureus (MRSA) clinical isolates; format: cell-based; conditions: Table 3
Experimental: (§1) The bactericidal activities were examined using standard bacterial culture media (MHB) without the inclusion of human blood.
(§2) Tables 3 and 4 provide the MIC data for the tested AMPs against a variety of infectious species. The following strains were tested: Enterococcus faecium MDR clinical isolates Ef 25153 and Ef 26125; methicillin-resistant Staphylococcus aureus (MRSA) clinical isolates USA300 and 150-10; Klebsiella pneumonia MDR clinical isolates C3, C5, A5, D7 and E6; and Pseudomonas aeruginosa MDR clinical isolates PA 82-8 and PA 129-5. […] Table 5 provides the data for the D-amino acid substituted AMPs and their bactericidal activities against various Klebsiella pneumonia multi-drug resistant (MDR) clinical isolates. All odd number Kp bacteria (isolated prior to colistin treatment; colistin sensitive) are paired with the corresponding even number Kp bacteria (isolated after colistin treatment; colistin resistant) from the same patient. O.D. readings represent the bacterial growth with a background reading of about 0.049+/−0.003.

[3] = tested on: Enterococcus faecium MDR clinical isolates; format: cell-based; conditions: Table 3
Experimental: as §1, §2

[4] = tested on: Klebsiella pneumonia MDR clinical isolates; format: cell-based; conditions: Table 3
Experimental: as §1, §2

[5] = tested on: Pseudomonas aeruginosa MDR clinical isolates; format: cell-based; conditions: Table 3
Experimental: as §1, §2

Hep2 epithelial cells = assay: Hep2 cytopathology in RSV plaque assay; format: cell-based; conditions: 32 μM
Experimental: Using a standard plaque assay, RSV replication was quantified in permissive Hep2 epithelial cells in the presence or absence of various AMPs. RSV plaque assays were used to determine the minimum dose required to induce Hep2 cytopathology and maximum anti-viral effects. Experimental controls included Hep2 cells+/−RSV and Hep-2 cells with AMP only.
Hep2 control cells without the AMP were also plated. Both plates were infected with the same dilution of A2 RSV virus. There is extensive sloughing of cells treated with the peptide (top plate) as compared to cells which were not (bottom plate), FIG. 18.

[6] = tested on: primary Human bronchial epithelial (HBE) cells; assay: Toxicity to primary cells, tetrazolium-based viability assay; format: cell-based; conditions: treated 2 h
Experimental: Anti-cancer activity of SEQ ID No. 26 and its D-amino acid modified enantiomer, SEQ ID. No. 34. SEQ ID. No. 34 was compared to SEQ ID No. 26 for selective anti-cancer activities using cancer cell lines of the respiratory system. See FIG. 22A for H460 (large cell lung cancer) and Calu-1 (non-small cell lung cancer) and FIG. 22B for primary Human bronchial epithelial (HBE) cells. The cells were grown to 80% confluence and then treated with each AMP for 2 h. Percent viability was examined using a tetrazolium-based assay assessing the mitochondrial integrity. […] No. 34; however SEQ ID. […] No. 34. Therefore, SEQ ID. […] No. 26.

S.A. ATCC49775 = assay: Antimicrobial activity of SPLUNC1 proteins (FIG. 2A); format: cell-based; conditions: S.A. ATCC49775, FIG. 2A
Source text: (§3) The AMPs disclosed herein were derived from the naturally secreted antimicrobial protein SPLUNC1. […] FIG. 2C) illustrates the alpha helical structure of alpha4 (A4), the 30 residue sequence used as the template to design the disclosed AMPs listed in Table 2.

MRSA USA300 = assay: Antimicrobial activity of SPLUNC1 proteins (FIG. 2B); format: cell-based; conditions: MRSA USA300, FIG. 2B
Source text: as §3

Molecule: RRWVRRVRRVWRRVVRVVRRWVRR [SEQ ID No. 26, reference compound]
- MTD ([1]; Swiss Webster, mouse, in vivo, FIG. 14A, read-out: maximum tolerated dosage (MTD)): 15 mg/kg
- maximum tolerated dose (MTD) ([1]; i.v., Swiss Webster mice): 15 mpk
- MIC MRSA 150-10 ([2]; isolate 150-10): 8 µM
- MIC MRSA USA300 ([2]; isolate USA300): <4 µM
- MIC Ef 25153 ([3]; isolate Ef 25153): <4 µM
- MIC Ef 26125 ([3]; isolate Ef 26125): <4 µM
- MIC A5 ([4]; isolate A5): >8 µM
- MIC C3 ([4]; isolate C3): 16 µM
- MIC C5 ([4]; isolate C5): 16 µM
- MIC D7 ([4]; isolate D7): <4 µM
- MIC E6 ([4]; isolate E6): <4 µM
- MIC PA 82-8 ([5]; isolate PA 82-8): 4 µM
- MIC PA 129-5 ([5]; isolate PA 129-5): <4 µM
- cytopathology in Hep2 cells (Hep2 epithelial cells): caused cytopathology
- toxicity to primary HBE cells [6]: toxic to primary HBE cells

B1: SPLUNC1-wt: wildtype version of SPLUNC1, a naturally secreted antimicrobial protein (protein, UniProt Q9NP55 20-256, looked up)
BPI fold-containing family A …: QFGGLPVPLDQTLPLNVNPALPLSPTGLAGSLTNALSNGLLSGGLLGILENLPLLDILKPGGGTSGGLLGGLLGKVTSVIPGLNNIIDIKVTDPQLLELGLVQSPDGHRLYVTIPLGIKLQVNTPLVGASLLRLAVKLDITAEILAVRDKQERIHLVLGDCTHSPGSLQISLLDGLGPLPIQGLLDSLTGILNKVLPELVQGNVCPLVNEVLRGLDITLVHDIVNMLIHGLQFVIKV
- antimicrobial activity (S.A. ATCC49775): significant antimicrobial activity
- antimicrobial activity (MRSA USA300): significant antimicrobial activity
